In patent publication US8580789B2, “Treating glaucoma” (The Cleveland Clinic Foundation, priority 2007, dated 2013):

Assays:
[1] = test system: cortical neurons; conditions: cited from earlier work; for Protection of neurons from the neurotoxic effect of 3-deoxyglucosone and methylglyoxal: cotreatment with aminoguanidine, pretreatment with N-acetylcysteine
[2] = test system: internal limiting membrane of the retina; conditions: direct application; white light for 3 minutes; cited from earlier work
[3] = test system: porcine corneas; assay: Corneal surface wave elastometry after standard crosslinking or flash-linking; conditions: group 1
Description: To investigate comparative cornea stiffness values in porcine corneas after standard crosslinking and a new, rapid method of crosslinking (flash-linking) using surface wave elastometry (Sonic Eye, PriaVision Inc, Menlo Park, Calif.).
Six porcine eyes were treated using a UVA double diode with 4.2 mW/cm2 UVA at 370 nm while applying 0.1% riboflavin-5-phosphate drops to the central cornea every 5 minutes as a photosensitizer for 30 min (group 1). The next 6 porcine corneas were treated with a single application of a customized photoactive crosslinking agent (PriaVision Inc) and 30 seconds of UVA light at the same power and wavelength (group 2). Following both experimental treatments, the Sonic Eye system was used to measure ultrasound surface wave propagation time between two fixed-distance transducers applied to the cornea along central horizontal and vertical positions. Intraocular pressure was continuously monitored using a digital pressure monitor display (Infinity SC9000XL, Drager medical, Lubeck, Germany) after vitreous chamber cannulation with a 23-gauge needle.

[4] = test system: retinal ganglion cells; conditions: by inhibiting nitric oxide synthase; cited from earlier work
[5] = test system: porcine sclera; conditions: scleral strips; 1 hour glutaraldehyde, 5 days glyceraldehydes, 30 minutes UVA for riboflavin/UVA; cited from earlier work
[6] = test system: human PS; conditions: strips incubated in 0.5 M agent over 5 days; cited from earlier work
[7] = test system: human sclera; conditions: scleral strips; 1 hour glutaraldehyde, 5 days glyceraldehydes, 30 minutes UVA for riboflavin/UVA; cited from earlier work
[8] = test system: human LC; conditions: strips incubated in 0.5 M agent over 5 days; cited from earlier work
[9] = test system: peripapillary sclera; assay: Surface wave velocity (stiffness) of the peripapillary sclera of whole globes, Sonic Eye elastometer; design: species or system porcine; conditions: riboflavin 1% + UVA 30 min
Description: (§1) Surface wave velocity (SWV) is a measure of tissue stiffness, and is performed by detecting the velocity of an ultrasonic wave between 2 points (Sonic Eye, Priavision, Menlo Park, Calif.) (Dupps W J, et al., J Refract Surg; 23: 66-75 (2007)). 19 porcine eyes were divided into 2 groups. In group 1 (6 eyes), the SWV across the exposed optic nerve/lamina cribrosa complex (ON/LCC) was initially measured at the eyes' physiologic IOP and at 100 mmHg. The porcine globes were cannulated with IV tubing to facilitate the change in IOP. In group 2 (13 eyes), the pre-treatment SWV was measured across the same region and atop the peri-papillary sclera, after which both regions were treated with riboflavin 1%, Q 5 min×6, and UVA irradiation (˜365 nm at 3 mW/cm^2) for 30 min per eye. The SWV was then re-measured in each eye at the pre-treatment IOP and at 100 mmHg.
(§2) An annular sponge soaked in GTA was exposed to the peripapillary sclera for ˜30 minutes, and not the ON/LCC. Measurements were repeated as above, but also along each quadrant of peripapillary sclera to ensure uniformity and symmetry of crosslinking around the ON/LCC. The results are summarized as follows:
(§3) Eighteen porcine globes were divided evenly into 3 groups. The optic nerves were transected to expose the ON/LC, and each globe was infused through an in-line pressure transducer for direct IOP control. Surface wave velocity, a non-destructive measure of tissue stiffness, was measured across the ON/LC and PS before and after collagen crosslinking at IOP of 10 and 30 mmHg (groups 1 and 2) and at each globe's preinflation IOP and 80 mmHg (group 3). In group 3, papillary strain was measured by analyzing the displacement of fiducial marks immediately adjacent to the ON/LC using digital photography.
(§4) Surface wave velocity (SWV) is a measure of tissue stiffness that has been used in dermatologic applications to measure age-related changes (Potts R O, et al., J Invest Dermatol.; 82(1):97-100 (1984); Potts R O, et al., J Biomech.; 16(6):365-372 (1983); Davis B R, et al., Exp Gerontol; 24(3):201-210 (1989)), softening effects of tissue hydration and skin creams (Vexler A, et al., J Invest Dermatol; 113(5):732-739 (1999)), and sclerosing effects of radiation on breast skin (Gorodetsky R, et al., Int J Radiat Oncol Biol Phys.; 45(4):893-900 (1999)). When acoustic waves in the 0.5 to 30 kHz frequency range are used, propagation speed in skin is related to the density and stiffness of the tissue (Pereira J M, et al., J Biomech.; 23(8):745-751 (1990)). A prototype handheld ocular surface elastometer (Sonic Eye, Priavision, Menlo Park, Calif.) with an operating frequency within this range (4 kHz) and a fixed 4.5 mm wave propagation distance has been described in detail elsewhere (Dupps W J Jr, et al., J Refract Surg.; 23(1):66-75 (2007)). The Sonic Eye was used in this study as a non-destructive means of measuring local in situ tissue stiffness across and around the optic nerve head.
Eighteen porcine eyes were obtained from a local abattoir (Heffelfingers Meats, Inc., Jeromesville, Ohio) and were used within 24 hours postmortem. The optic nerves were dissected under microscopic visualization to expose the ON/LC (FIG. 1). […] Replicate SWV measurements were obtained at a rate of 1 per second with a triggering foot pedal to produce at least 5 measurements that were subsequently averaged for each region of interest. A PC software interface converted the time-of-flight data to velocity in meters per second (m/s), and the velocity data were exported to Excel (v. 11, SP2; Microsoft Corp, Redmond, Wash.) and Minitab (v. 14.20; Minitab Inc, State College, Pa.) for statistical analysis.
(§5) Three experimental groups of 6 eyes each were defined. In group 1, SWV across the optic nerve/lamina cribrosa complex and peripapillary scleral regions of interest were measured at 10 and 30 mmHg to represent a physiological range of pressures. […]

[10] = test system: optic nerve/lamina cribrosa complex; assay: Surface wave velocity (stiffness) across the optic nerve/lamina cribrosa complex of whole globes, Sonic Eye elastometer; design: species or system porcine; conditions: Example 1 group 2
Description: as §1, §2, §3, §4
Eighteen porcine eyes were obtained from a local abattoir (Heffelfingers Meats, Inc., Jeromesville, Ohio) and were used within 24 hours postmortem. The optic nerves were dissected under microscopic visualization to expose the ON/LC (FIG. 1). […]
as §5

[11] = test system: keratoconus; conditions: topical riboflavin with UVA light exposure; cited from earlier work
[12] = test system: rabbit eyes; conditions: 370 nm light at 4.2 mW/cm2; cited from earlier work

## O=CC(=O)C[C@H](O)[C@H](O)CO [3-deoxyglucosone]
[1]
  Neurotoxic effect to cortical neurons: neurotoxic effect

## CC1(C)C(/C=C/C=C/C=C/C=C2\N(CCCCS(=O)(=O)O)c3ccc4ccccc4c3C2(C)C)=[N+](CCCCS(=O)(=O)[O-])c2ccc3ccccc3c21 [ICG, indocyanine green]
[2]
  Stiffness of the internal limiting membrane of the retina: increase the stiffness

## CC(=O)N[C@@H](CS)C(=O)O [N-acetylcysteine]
[1]
  Protection of neurons from the neurotoxic effect of 3-deoxyglucosone and methylglyoxal: protected the neurons

## Cc1cc2nc3c(=O)[nH]c(=O)nc-3n(C[C@H](O)[C@H](O)[C@H](O)COP(=O)(O)O)c2cc1C [UVA+riboflavin, riboflavin-5-phosphate]
[3]; 0.1% riboflavin-5-phosphate drops every 5 min, UVA 4.2 mW/cm2 370 nm 30 min
  Mean surface wave velocity of cornea after crosslinking: 111.35±2.16 m/s
[3]; from 93.6 to 111.3 m/s, p=0.032
  Increase of mean surface wave velocity of cornea after crosslinking: 17.7 units

## N=C(N)NN [aminoguanidine]
[4]
  Neuroprotective effect to retinal ganglion cells: neuroprotective effect
[1]
  Protection of neurons from the neurotoxic effect of 3-deoxyglucosone and methylglyoxal: protected the neurons

## O=CC(O)CO (stereo not shown) [glyceraldehydes, glyceraldehyde]
[5]
  Rise in porcine scleral stress (rigidity): 5 ×
[6]
  Increase of stress with 20% strain of human PS: > 2 fold
[7]
  Rise in human scleral stress (rigidity): 34%
[8]
  Increase of stress with 20% strain of human LC: > 1.5 fold

## CC(=O)C=O [methylglyoxal]
[6]
  Increase of stress with 20% strain of human PS: > 3 fold
[8]
  Increase of stress with 20% strain of human LC: > 2 fold

## Cc1cc2nc3c(=O)[nH]c(=O)nc-3n(C[C@H](O)[C@H](O)[C@H](O)CO)c2cc1C [riboflavin/UVA, riboflavin]
[5]
  Rise in porcine scleral stress (rigidity): 1.5 ×
[7]
  Rise in human scleral stress (rigidity): 29%
[9]; Example 1 group 2, IOP 100 mmHg
  SWV of the peripapillary sclera after crosslinking at 100 mmHg: 63.5±1.8 m/s
[9]; Example 1 group 2, pre-treatment IOP, mean±SD
  SWV (stiffness) of the peripapillary sclera after crosslinking: 55.7±1.5 m/s
[9]; Example 3 Group 1, Low IOP 10 mmHg
  Stiffness of Peripapillary Sclera, Post-crosslinking Mean ± SD: 85.5 ± 13.5 m/s
[10]; riboflavin 1% + UVA 30 min, p=0.1
  Change of SWV of the ON/LCC upon raising the IOP to 100 mmHg after crosslinking: no change
[10]; riboflavin 1% Q 5 min x6 + UVA ~365 nm 3 mW/cm^2 30 min to ON/LCC and PS, pre-treatment IOP, mean±SD
  SWV (stiffness) of the ON/LCC after crosslinking: 32.8±1.1 m/s
[11]
  Clinical effect in keratoconus: used effectively as a stabilizing treatment for keratoconus
[12]
  Retinal cell death after riboflavin and irradiation: retinal pigment epithelium (RPE), photoreceptor and outer nuclear layer death
